# In US9249102B2 (priority 2012, dated 2016):
# Test system: microfilaria of Dirofilaria immitis
# Assay: Method F: microfilaria of Dirofilaria immitis, survival at 24 hours
# Conditions: not given
row,Compound,EC50 [µg/mL]
1,"O=C(CO[C@H]1CC[C@H](Nc2ccc([N+](=O)[O-])c(C(F)(F)F)c2)CC1)N1CCc2cc(Cl)ccc2C1 [Compound 195, 1-(6-chloro-1,2,3,4-tetrahydroisoquinolin-2-yl)-2-[[4-[[4-nitro-3-(trifluoromethyl)phenyl]amino]cyclohexyl]oxy]ethan-1-one]",< 1

# Same assay, conditions: survival of microfilaria at 24 hours
row,Compound,EC50 [µg/mL]
1,"O=C(CO[C@H]1CC[C@H](Nc2ccc([N+](=O)[O-])c(C(F)(F)F)c2)CC1)Nc1ccc2cc(C(F)(F)F)ccc2n1 [Compound 210, 2-[[4-[[4-nitro-3-(trifluoromethyl)phenyl]amino]cyclohexyl]oxy]-N-[6-(trifluoromethyl)quino-lin-2-yl]acetamide]",< 1
2,O=C(NCCOc1ccc(Nc2ccc([N+](=O)[O-])c(C(F)(F)F)c2)cc1)C(=O)NCc1cc2cc(C(F)(F)F)ccc2o1 [Compound 231],< 5
3,"CC(CN1CCN(c2cccc3ccccc23)CC1)C(=O)N1CCC(Nc2ccc([N+](=O)[O-])c(C(F)(F)F)c2)CC1 (stereo not shown) [Compound 19, 2-methyl-3-(4-naphthalen-1-yl-piperazin-1-yl)-1-[4-(4-nitro-3-trifluoromethyl-phenylamino)-piperidin-1-yl]-propan-1-one]",< 1
4,"N#Cc1ccc(NC2CCN(C(=O)CCCN3CCN(c4ccc5cc(C(F)(F)F)ccc5n4)CC3)CC2)cc1C(F)(F)F [Compound 95, 2-(trifluoromethyl)-4-[[1-(4-[4-[6-(trifluoromethyl)quinolin-2-yl]piperazin-1-yl]butanoyl)piperidin-4-yl]amino]benzonitrile]",< 5
5,CN(C(=O)C(=O)NCCO[C@H]1CC[C@H](Nc2ccc([N+](=O)[O-])c(C(F)(F)F)c2)CC1)c1ccc2cc(F)ccc2n1 [Compound 242],< 1
6,"Cc1cc(N2CCN(CC(C)C(=O)N3CCC(Nc4ccc([N+](=O)[O-])c(C(F)(F)F)c4)CC3)CC2)nc2ccccc12 (stereo not shown) [Compound 101, 2-methyl-3-[4-(4-methylquinolin-2-yl)piperazin-1-yl]-1-(4-[[4-nitro-3-(trifluoromethyl)phenyl]amino]piperidin-1-yl)propan-1-one]",< 1
7,"Cc1cc(N2CCN(CC(C)C(=O)N3CCC(Nc4ccc([N+](=O)[O-])c(C(F)(F)F)c4)CC3)CC2)nc2ccc(F)cc12 (stereo not shown) [Compound 102, 3-[4-(6-fluoro-4-methylquinolin-2-yl)piperazin-1-yl]-2-methyl-1-(4-[[4-nitro-3-(trifluoromethyl)phenyl]amino]piperidin-1-yl)propan-1-one]",< 1
8,"O=C(CO[C@H]1CC[C@H](Nc2ccc([N+](=O)[O-])c(C(F)(F)F)c2)CC1)N1CCc2ccccc2C1 [Compound 192, 2-[[4-[[4-nitro-3-(trifluoromethyl)phenyl]amino]cyclohexyl]oxy]-1-(1,2,3,4-tetrahydroisoquinolin-2-yl)ethan-1-one]",< 1
9,"O=C(NCCOc1ccc(Nc2ccc([N+](=O)[O-])c(C(F)(F)F)c2)cc1)C(=O)NCc1cc2cc(Cl)ccc2o1 [Compound 230, N^1-((5-chlorobenzofuran-2-yl)methyl)-N^2-(2-(4-(4-nitro-3-(trifluoromethyl)phenylamino)phenoxy)ethyl)oxalamide]",< 5
10,"O=C(COc1ccc2ccc([N+](=O)[O-])c(C(F)(F)F)c2c1)N1CCN(c2ccc(Cl)cn2)CC1 [Compound 114, 1-[4-(5-chloropyridin-2-yl)piperazin-1-yl]-2-[[7-nitro-8-(trifluoromethyl)naphthalen-2-yl]oxy]ethan-1-one]",< 5
11,"O=C(NCCOc1ccc(Nc2ccc([N+](=O)[O-])c(C(F)(F)F)c2)cc1)C(=O)NCc1cc2cc(F)ccc2o1 [Compound 229, N^1-((5-fluorobenzofuran-2-yl)methyl)-N^2-(2-(4-(4-nitro-3-(trifluoromethyl)phenylamino)phenoxy)ethyl)oxalamide]",< 1

# Test system: Haemonchus contortus
# Assay: Method A: Haemonchus contortus L1 larvae, microtitre plate screen
# Conditions: 96 h, read-out: motility inhibition
row,Compound,inhibition at 5 µg/mL [%]
1,"O=C(NCCO[C@H]1CC[C@H](Nc2ccc([N+](=O)[O-])c(C(F)(F)F)c2)CC1)C(=O)Nc1ccc2cc(C(F)(F)F)ccc2n1 [Compound 240, N^1-(2-(-4-(4-nitro-3-(trifluoromethyl)phenylamino)cyclohexyloxy)ethyl)-N^2-(6-(trifluoromethyl)quinolin-2-yl)oxalamide]",≥ 90
2,"O=C(CO[C@H]1CC[C@H](Nc2ccc([N+](=O)[O-])c(C(F)(F)F)c2)CC1)N1CCN(Cc2cc3cc(Cl)cc(Cl)c3o2)CC1 [Compound 319, 2-[(4-[[4-nitro-3-(trifluoromethyl)phenyl]amino]cyclohexyl)-oxy]1-[4-(5,7-dichlorobenzofuran-2-ylmethyl)piperazin-1-yl]ethan-1-one]",≥ 90
3,"O=[N+]([O-])c1ccc(N[C@H]2CC[C@H](OCC(=S)N3CCN(c4ccc5cc(F)ccc5n4)CC3)CC2)cc1C(F)(F)F [Compound 264, 1-[4-(6-fluoro-quinolin-2-yl)-piperazin-1-yl]-2-[4-(4-nitro-3-trifluoro-methyl-phenylamino)-cyclohexyloxy]-ethanethione]",≥ 90
4,"O=C(COc1ccc(Nc2ccc([N+](=O)[O-])c(C(F)(F)F)c2)cc1)N1CCN(CC2Cc3cc(Cl)ccc3O2)CC1 (stereo not shown) [Compound 68, 1-[4-[(5-chloro-2,3-dihydro-1-benzofuran-2-yl)methyl]piperazin-1-yl]-2-(4-[[4-nitro-3-(trifluoromethyl)phenyl]amino]phenoxy)ethan-1-one]",≥ 90
5,"CC(Cc1cc2cc(C(F)(F)F)ccc2o1)N1CCN(C(=O)CO[C@H]2CC[C@H](Nc3ccc([N+](=O)[O-])c(C(F)(F)F)c3)CC2)CC1 (stereo partly shown) [Compound 330, 1-[4-[1-methyl-2-[5-(trifluoromethyl)benzofuran-2-yl]ethyl]piperazin-1-yl]-2-[4-[4-nitro-3-(trifluoromethyl)anilino]cyclohexoxy]ethanone]",≥ 90
6,"CC(CN1CCN(c2ccc3ccccc3n2)CC1)C(=O)N1CCC(Nc2ccc([N+](=O)[O-])c(C(F)(F)F)c2)CC1 (stereo not shown) [Compound 91, 2-methyl-1-(4-[[4-nitro-3-(trifluoromethyl)phenyl]amino]piperidin-1-yl)-3-[4-(quinolin-2-yl)piperazin-1-yl]propan-1-one]",≥ 90
7,"O=C(COc1ccc2ccc([N+](=O)[O-])c(C(F)(F)F)c2c1)N1CCN(c2ccc3cc(C(F)(F)F)ccc3n2)CC1 [Compound 131, 2-[[7-nitro-8-(trifluoromethyl)naphthalen-2-yl]oxy]-1-[4-[6-(trifluoromethyl)quinolin-2-yl]piperazin-1-yl]ethan-1-one]",≥ 90
8,"O=C(CO[C@H]1CC[C@H](Nc2ccc([N+](=O)[O-])c(C(F)(F)F)c2)CC1)N1CCN(Cc2cc3c(Cl)cc(Cl)cc3o2)CC1 [Compound 318, 2-[(4-[[4-nitro-3-(trifluoromethyl)phenyl]amino]cyclohexyl)-oxy]1-[4-(4,6-dichlorobenzofuran-2-ylmethyl)piperazin-1-yl]ethan-1-one]",≥ 90
9,"N#Cc1ccc(N[C@H]2CC[C@H](OCC(=O)N3CCN(Cc4nc5cc(Cl)ccc5o4)CC3)CC2)cc1C(F)(F)F [Compound 288, 2-[(4-[[4-cyano-3-(trifluoromethyl)phenyl]amino]cyclohexyl)-oxy]1-[4-(5-chlorobenzoxazol-2-ylmethyl)piperazin-1-yl]ethan-1-one]",≥ 90
10,"O=C(CO[C@H]1CC[C@H](Nc2ccc([N+](=O)[O-])c(C(F)(F)F)c2)CC1)N1CCN(C(=O)c2nc3cc(C(F)(F)F)ccc3s2)CC1 [Compound 338, 2-[(4-[[4-nitro-3-(trifluoromethyl)phenyl]amino]cyclohexyl)-oxy]1-[4-[5-(trifluoromethyl)benzothiazole-2-carbonyl]piperazin-1-yl]ethan-1-one]",≥ 90
11,"C[C@@H]1CN(C(=O)CO[C@H]2CC[C@H](Nc3ccc([N+](=O)[O-])c(C(F)(F)F)c3)CC2)C[C@H](C)N1Cc1ccc2cc(C(F)(F)F)ccc2c1 [Compound 374, 1-[(3S,5R)-3,5-dimethyl-4-(6-trifluoromethyl-naphthalen-2-ylmethyl)-piperazin-1-yl]-2-[4-(4-nitro-3-trifluoromethyl-phenylamino)-cyclohexyloxy]-ethanone]",≥ 90
12,"O=C(CO[C@H]1CC[C@H](Nc2ccc([N+](=O)[O-])c(C(F)(F)F)c2)CC1)N1CCN(Cc2cc3cc(Cl)cc(Br)c3o2)CC1 [Compound 321, 2-[(4-[[4-nitro-3-(trifluoromethyl)phenyl]amino]cyclohexyl)-oxy]1-[4-(5-chloro-7-bromobenzofuran-2-ylmethyl)piperazin-1-yl]ethan-1-one]",≥ 90
13,"O=C(NCCO[C@H]1CC[C@H](Nc2ccc([N+](=O)[O-])c(C(F)(F)F)c2)CC1)C(=O)Nc1ccc2ccccc2c1 [Compound 75, N-(naphthalen-2-yl)-N-[2-[(4-[[4-nitro-3-(trifluoromethyl)phenyl]amino]cyclohexyl)oxy]ethyl]ethanediamide]",≥ 90
14,"O=C(CO[C@H]1CC[C@H](Nc2ccc(S(=O)(=O)C(F)(F)F)cc2)CC1)N1CCN(c2nc3cc(C(F)(F)F)ccc3s2)CC1 [Compound 364, 2-[4-(4-trifluoromethanesulfonyl-phenylamino)-cyclohexyloxy]-1-[4-(5-trifluoromethyl-benzothiazol-2-yl)-piperazin-1-yl]-ethanone]",≥ 90
15,"C[C@@H]1CN(Cc2nc3cc(C(F)(F)F)ccc3s2)[C@@H](C)CN1C(=O)CO[C@H]1CC[C@H](Nc2ccc([N+](=O)[O-])c(C(F)(F)F)c2)CC1 [Compound 365, 1-[(2R,5S)-2,5-dimethyl-4-(5-trifluoromethyl-benzothiazol-2-ylmethyl)-piperazin-1-yl]-2-[4-(4-nitro-3-trifluoromethyl-phenylamino)-cyclohexyloxy]-ethanone]",≥ 90
16,"C[C@@H]1CN(C(=O)CO[C@H]2CC[C@H](Nc3ccc([N+](=O)[O-])c(C(F)(F)F)c3)CC2)C[C@H](C)N1Cc1ccc2cc(F)ccc2c1 [Compound 372, 1-[(3S,5R)-4-(6-fluoro-naphthalen-2-ylmethyl)-3,5-dimethyl-piperazin-1-yl]-2-[4-(4-nitro-3-trifluoromethyl-phenylamino)-cyclohexyloxy]-ethanone]",≥ 90
